# Reference: article PMC9127750, “Structure-based design of CDC42 effector interaction inhibitors for the treatment of cancer” (Cell reports, 2022)
# Where “and” joins values, the source holds several entries; their conditions need not be identical. Equal values may be shown once.
# Test system: WM3248 melanoma cells, 486 antibodies
# Experiment: Reverse phase protein arrays (RPPA)
# Format: cell-based, Human
# Details: 10 uM
# Source text: Pellets were snap frozen in liquid nitrogen and shipped to MD Anderson Cancer Center core RPPA facility for RPPA analysis (Table S5). Three biological replicates for each sample were generated.
# Nomenclatures on the RPPA heatmaps: name_of_antibody.species_of_antibody.status_of_antibody. V - antibody validated; C - validation of antibody in progress; Q - antibody nonspecific; E – under evaluation; antibodies raised in M - mouse, G - goat, R - rabbit, or T - rat.
smiles,measurement,setting,value
"CN(C)c1cccc(Nc2cc(-c3ccccc3)nc(C3CCNCC3)n2)c1 [ARN22089, N1,N1-dimethyl-N3-(6-phenyl-2-(piperidin-4-yl)pyrimidin-4-yl)benzene-1,3-diamine]",RPPA level MMP14.R.V,single replicates,0.939 and 1.138
same,RPPA level MR1.M.C,single replicates,1.059 and 1.005 and 1.063
same,RPPA level MRAP.R.C,single replicates,1.023 and 1.051
same,RPPA level MSH2.R.C,single replicates,0.977 and 1.024
same,RPPA level MSH6.R.C,single replicates,0.940 and 0.976
same,RPPA level MSI2.R.C,single replicates,1.020 and 0.933
same,RPPA level MTCO1.M.V,single replicates,1.128 and 0.684
same,RPPA level MTSS1.M.C,single replicates,1.023 and 1.031
same,RPPA level Mcl.1.R.V,single replicates,0.823 and 0.973 and 0.929
same,RPPA level MelanA.R.C,single replicates,0.752 and 0.988 and 1.034
same,RPPA level Melanoma.gp100.R.C,single replicates,0.837 and 0.959 and 1.052
same,RPPA level Merlin.R.C,single replicates,1.020 and 0.924
same,RPPA level Midkine.R.V,single replicates,1.032 and 0.966 and 1.004
same,RPPA level Mitofusin.1.R.V,single replicates,0.925 and 1.003 and 1.050
same,RPPA level Mitofusin.2.R.V,single replicates,0.797 and 0.934 and 1.103
same,RPPA level Mnk1.R.V,single replicates,0.917 and 0.929 and 1.022
same,RPPA level mTOR.R.V,single replicates,1.016 and 0.918 and 0.854
same,RPPA level mTOR_pS2448.R.C,single replicates,1.016 and 0.946 and 0.924
same,RPPA p21.R.C,single replicates,1.203 and 0.773 and 1.055
same,RPPA p27.Kip1.R.C,single replicates,1.051 and 0.999
same,RPPA p27_pT157.R.C,single replicates,1.124 and 1.006
same,RPPA p27_pT198.R.V,single replicates,0.989 and 1.466 and 1.049
same,RPPA p38.MAPK.R.V,single replicates,0.899 and 0.964 and 1.062
same,RPPA p38.MAPK._pT180_Y182.R.V,single replicates,0.872 and 0.913 and 0.950
same,RPPA p38.a.M.V,single replicates,0.966 and 1.049
same,RPPA p44.42.MAPK.R.V,single replicates,0.852 and 0.899
same,RPPA p53.R.C,single replicates,0.871 and 0.886 and 0.966
same,RPPA p70.S6K1.R.V,single replicates,1.046 and 0.827 and 0.882
same,RPPA p70.S6K_pT389.R.V,single replicates,1.331 and 0.838 and 0.820
same,RPPA p90RSK_pT573.R.C,single replicates,1.224 and 0.922 and 1.014
same,RPPA DNMT1.R.V,single samples,1.052 and 0.962 and 1.050
same,RPPA DRP1.R.V,single samples,1.012 and 0.957 and 0.978
same,RPPA DUSP4.R.V,single samples,0.821 and 0.862 and 1.012
same,RPPA DUSP6.R.C,single samples,1.063 and 0.981 and 0.768
same,RPPA DYRK1B.R.C,single samples,1.057
same,RPPA Dvl3.R.V,single samples,0.885 and 1.058 and 1.012
same,RPPA E2F1.R.V,single samples,1.030 and 1.011
same,RPPA E.Cadherin.R.V,single samples,0.941 and 1.144 and 1.080
same,RPPA EGFR.R.V,single samples,0.824 and 0.981 and 0.985
same,RPPA EGFR_pY1068.R.C,single samples,0.993 and 0.982
same,RPPA EGFR_pY1173.R.V,single samples,0.968 and 1.017 and 0.987
same,RPPA EMA.M.C,single samples,1.080 and 1.274
same,RPPA ENY2.M.C,single samples,0.960 and 1.056
same,RPPA ER.a.R.V,single samples,0.808 and 0.999 and 1.013
same,RPPA ER.a_pS118.R.V,single samples,1.079 and 0.918 and 0.929
same,RPPA ERCC1.R.C,single samples,1.102 and 1.123 and 0.975
same,RPPA ERCC5.R.C,single samples,0.931 and 0.897 and 0.810
same,RPPA ERRalpha.R.V,single samples,1.149 and 0.962
same,RPPA EVI1.R.V,single samples,1.129 and 1.023
same,RPPA Elk1_pS383.R.C,single samples,0.944 and 1.020 and 1.011
same,RPPA Enolase.1.R.V,single samples,0.956 and 0.946
same,RPPA Enolase.2.R.V,single samples,1.058 and 1.146 and 1.060
same,RPPA EphA2.R.V,single samples,0.798 and 1.104 and 1.103
same,RPPA EphA2_pY588.R.C,single samples,0.976 and 0.887
same,RPPA Erk5.R.V,single samples,0.766 and 0.899 and 1.062
same,RPPA Ets.1.R.V,single samples,1.143 and 1.054 and 1.017
same,RPPA FABP5.R.C,single samples,0.909 and 1.032 and 1.076
same,RPPA FAK.R.C,single samples,0.856 and 0.998
same,RPPA FAK_pY397.R.V,single samples,1.077 and 0.996
same,RPPA FANCD2.R.V,single samples,1.119 and 0.953 and 0.957
same,RPPA FASN.R.V,single samples,1.052 and 0.855 and 0.656
same,RPPA FGF.basic.R.C,single samples,0.867 and 1.005 and 0.952
same,RPPA FN14.R.C,single samples,0.860 and 1.189 and 1.048
same,RPPA FOXM1.R.V,single samples,1.131 and 0.950 and 0.985
same,RPPA FOXO3.R.V,single samples,0.873 and 1.121 and 1.097
same,RPPA FRS2.alpha_pY196.R.V,single samples,1.003 and 1.811
same,RPPA FTO.R.V,single samples,1.061 and 0.989 and 0.960
same,RPPA Fibronectin.R.V,single samples,0.546 and 0.983 and 0.999
same,RPPA FoxO3a_pS318_S321.R.C,single samples,1.060 and 0.984
same,RPPA G6PD.R.V,single samples,1.051 and 1.085 and 1.058
same,RPPA GATA3.M.V,single samples,1.245 and 0.906 and 0.898
same,RPPA GATA6.R.V,single samples,1.116 and 0.978
same,RPPA GCLC.R.C,single samples,0.924 and 1.030
same,RPPA GCLM.R.V,single samples,1.052 and 1.025 and 1.000
same,RPPA GCN5L2.R.V,single samples,0.890 and 0.985
same,RPPA GGPS1.M.V,single samples,0.998 and 0.974 and 1.046
same,RPPA GRB2.R.V,single samples,0.833 and 0.898 and 0.998
same,RPPA GRB7.R.V,single samples,0.772 and 1.100
same,RPPA GSK.3B.R.C,single samples,0.886 and 0.913 and 0.953
same,RPPA GSK.3a.b.M.V,single samples,1.163 and 1.006 and 1.033
same,RPPA GSK.3a.b_pS21_S9.R.V,single samples,1.290 and 0.899 and 0.932
